Laboratory results reported in paper PMC10246557, “Kinetic and inhibition studies on human Jumonji-C (JmjC) domain-containing protein 5” (RSC Chemical Biology, 2023).
Read-outs that look alike come from different tables or passages of the source.

How the values were obtained:
human JMJD5 [1] = molecular target: T1, human JMJD5 (Homo sapiens, UniProt Q8N371); experiment: SPE-MS JMJD5 turnover and kinetic assay (RPS6_128–148 hydroxylation); type: biochemical; details: absence of 2OG; JMJD5 0.15 μM, 2OG derivative 400 μM, Fe(II) 20 μM, RPS6_128–148 2.0 μM
T1 construct: made in house; host or cells: Escherichia coli BL21(DE3)
T1 sequence (Q8N371 whole entry): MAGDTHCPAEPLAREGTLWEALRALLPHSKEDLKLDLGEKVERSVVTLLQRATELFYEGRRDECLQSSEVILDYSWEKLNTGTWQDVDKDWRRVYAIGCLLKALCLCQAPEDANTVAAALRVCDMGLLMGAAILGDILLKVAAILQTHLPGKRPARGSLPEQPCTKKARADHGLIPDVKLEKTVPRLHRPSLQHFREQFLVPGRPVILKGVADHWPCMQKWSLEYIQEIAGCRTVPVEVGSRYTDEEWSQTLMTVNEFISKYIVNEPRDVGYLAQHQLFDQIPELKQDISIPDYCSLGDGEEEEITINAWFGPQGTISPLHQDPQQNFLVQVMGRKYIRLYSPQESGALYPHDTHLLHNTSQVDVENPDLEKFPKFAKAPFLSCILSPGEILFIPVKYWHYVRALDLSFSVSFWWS
Method: JMJD5 turnover assays for time course and kinetic experiments were performed in 96-well polypropylene assay plates (Greiner) with either […] total reaction volume using the concentrations given in the manuscript or ESI, ^† and JMJD5-catalysed substrate hydroxylation was directly monitored using SPE-MS. […] Assay samples were aspirated under vacuum for 0.6 s and loaded onto a C4 solid phase extraction (SPE) cartridge. After loading, the C4 SPE cartridge was washed with 0.1%v/v aqueous formic acid to remove non-volatile buffer salts (5.5 s, 1.5 mL min^−1). The peptide was eluted from the SPE cartridge with 0.1%v/v aqueous formic acid in 80/20v/v acetonitrile/water into the mass spectrometer (5.5 s, 1.5 mL min^−1) and the SPE cartridge re-equilibrated with 0.1%v/v aqueous formic acid (0.5 s, 1.5 mL min^−1). The mass spectrometer was operated using the MassHunter Workstation B.08.00 software (Agilent), the mass spectrometer parameters were: capillary voltage (4000 V), nozzle voltage (1000 V), fragmentor voltage (365 V), gas temperature (280 °C), gas flow (13 L min^−1), sheath gas temperature (350 °C), sheath gas flow (12 L min^−1). […] Data were exported into Microsoft Excel and used to calculate the % conversion of the hydroxylation reaction using the equation: % conversion = 100 × (integral product peptide)/(integral substrate peptide + integral product peptide).
parameters (continues on the following two pages). Maximum velocities (vapp ) and Michaelis constants (Kapp)
of JMJD5 were determined in independent triplicates, monitoring the JMJD5-catalyzed hydroxylation of the
SPE-MS, as described (Experimental Section).
20 °C). Measurement times were normalized to the first sample injection analyzed after the addition of JMJD5 to
shown as the mean of three independent runs (n = 3; mean ± standard deviation, SD).
hexahydrate (20 μM, (NH4)2Fe(SO4)2·6H2O); and (b) hydroxylation rates used to determine kinetic parameters of
(1 picture or pasted object on this page, not shown here)
Maximum velocities (vapp ) and
Michaelis constants (Kapp) of JMJD5 were determined in independent triplicates for (1R)-3-
(carboxycarbonyl)cyclopentane-1-carboxylic acid (14), monitoring the JMJD5-catalyzed hydroxylation of the
as described (Experimental Section).
pH 7.5, 20 °C). Measurement times were normalized to the first sample injection analyzed after the addition of
(§1) Data are shown as the mean of three independent runs (n = 3; mean ± SD).
to determine kinetic parameters of JMJD5 for 14.

human JMJD5 [2] = molecular target: T1, human JMJD5; experiment: SPE-MS JMJD5 inhibition assay; type: biochemical; details: for IC50 / IC50 JMJD5: 2OG 2.0 μM, Fe(II) 2.0 μM, LAA 100 μM, RPS6_128–148 2.0 μM
Method: Solutions of the small-molecules (100% DMSO) were dry dispensed across 384 well polypropylene V-bottom assay microplates (Greiner) in an approximately three-fold and 11-point dilution series (100 μM inhibitor top concentration; the final DMSO assay concentration was kept constant at 0.5%v/v) using an ECHO 550 acoustic dispenser (Labcyte). […] Each reaction was performed in technical duplicates in adjacent wells of the assay plates; additionally, assays were performed in two independent duplicates on different days using different inhibitor solutions.
The Enzyme Mixture (25 μL per well), containing 0.3 μM His6-thioredoxin-tagged JMJD5 in buffer (50 mM MOPS, pH 7.5), was dispensed across the inhibitor-containing 384-well plates with a multidrop dispenser (ThermoFischer Scientific) at 20 °C under an ambient atmosphere. The plates were subsequently centrifuged (1000 rpm, 5 s) and incubated for 15 min at 20 °C. […] The plates were centrifuged (1000 rpm, 5 s) and, after incubating for 30 min, the enzyme reaction was stopped by the addition of 10%v/v aqueous formic acid (5 μL per well). The plates were then centrifuged (1000 rpm, 30 s) and analyzed by MS.
Z′-Factors were calculated according to the cited literature using Microsoft Excel.[61]

human KDM4E = molecular target: T2, human KDM4E (Homo sapiens, UniProt B2RXH2); experiment: KDM4E SPE-MS turnover and kinetic assay (H3 K9(me3) peptide demethylation); type: biochemical; details: absence of 2OG; KDM4E 0.15 μM, 2OG derivative 330 μM, Fe(II) 50 μM, ARTAQTARK(me3)STGGIA 10.0 μM
T2 sequence (B2RXH2 1-506): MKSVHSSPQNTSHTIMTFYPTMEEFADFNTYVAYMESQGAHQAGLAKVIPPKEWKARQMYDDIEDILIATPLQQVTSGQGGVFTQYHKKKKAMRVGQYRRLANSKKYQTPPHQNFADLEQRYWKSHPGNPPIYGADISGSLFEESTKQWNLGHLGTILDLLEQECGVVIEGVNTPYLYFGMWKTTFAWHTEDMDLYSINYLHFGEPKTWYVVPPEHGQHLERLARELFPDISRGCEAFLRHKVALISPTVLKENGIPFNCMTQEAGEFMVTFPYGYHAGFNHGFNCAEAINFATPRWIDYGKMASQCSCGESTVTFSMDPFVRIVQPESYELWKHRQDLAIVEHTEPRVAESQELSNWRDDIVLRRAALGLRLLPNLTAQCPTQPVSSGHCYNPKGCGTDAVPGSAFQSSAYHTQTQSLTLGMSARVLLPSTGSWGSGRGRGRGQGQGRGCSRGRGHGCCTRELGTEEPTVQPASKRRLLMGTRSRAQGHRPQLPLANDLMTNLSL
Method: KDM4E turnover and inhibition assays were performed as reported using recombinant human KDM4E and a histone 3 K9(me3) derivative (i.e. […](me3)STGGIA)[41] as substrate.[95]
Supplementary Figure S3. Rates of KDM4E-catalyzed Nε-trimethyl lysine demethylations of a histone 3- […]
Maximum velocities (vapp ) and Michaelis […]
catalyzed Nε-trimethyl lysine demethylation of the histone 3 K9(me3)-derived peptide […]
(me3)STGGIA2 by SPE-MS as described;3 note that mono-, di-, and tri-demethylated product […]
buffer (50 mM MES, pH 7.0, 20 °C). Measurement times were normalized to the first sample injection analyzed […]
as §1
(a) Time course of the KDM4E-catalyzed Nε-trimethyl lysine demethylation reaction of the […]

human FIH = details: absence of 2OG; FIH 0.15 μM, 2OG derivative 330 μM, Fe(II) 50 μM, HIF-1α788–822 5.0 μM; cited from earlier work
human AspH = details: absence of 2OG; AspH 0.1 μM, 2OG derivative 330 μM, Fe(II) 50 μM, hFX-CP101–119 2.0 μM; cited from earlier work
[3] = JMJD5 0.15 μM, read-out: IC50 JMJD5

| Molecule | JMJD5 (%): RPS6_128–148 hydroxylation with the compound as cosubstrate (human JMJD5 [1]) | IC50 (human JMJD5 [2]; [3]) [µM] | KDM4E (%): substrate demethylation with the compound as cosubstrate (human KDM4E) [%] | FIH (%): substrate hydroxylation with the compound as cosubstrate (human FIH) | AspH (%): substrate hydroxylation with the compound as cosubstrate (human AspH) | also measured |
| --- | --- | --- | --- | --- | --- | --- |
| 3-(9,9-dimethyl-9H-fluoren-2-yl)methyl-2OG [2OG derivative 7] | < 1% | > 50 | < 1 | < 1% | < 1% |  |
| O=C(O)C(=O)c1ccccc1C(=O)O [C00014] | <1% |  | <1 | <1% | <1% |  |
| CC1(C)c2ccccc2-c2ccc(CC(CC(=O)O)C(=O)C(=O)O)cc21 (centres unmarked) [C00015] | <1% |  | <1 | <1% | <1% |  |
| O=C(O)C(=O)c1cccc(C(=O)O)c1 [C00016] | <1% |  | <1 | <1% | <1% |  |
| CC(CC(=O)C(=O)O)C(=O)O (centres unmarked) [C00017] | ∼10% |  | <1 | ∼45% | ∼10% |  |
| O=C(O)C(=O)c1ccc(C(=O)O)cc1 [C00018] | <1% |  | <1 | <1% | ∼80% |  |
| O=C(O)CNC(=O)C(=O)O [C00025] |  | 0.15 ± 0.02 |  |  |  |  |
| O=C(O)c1ccc(O)c2ncccc12 [C00029] |  |  |  |  |  | IC50 (human JMJD5 [2]; IC50 JMJD5, JMJD5 0.15 μM): 2.6 ± 0.1 µM |
| O=C(O)C(=O)N[C@H](Cc1ccccc1)C(=O)O [C00030] |  | > 100 |  |  |  |  |
| O=c1c2ccccc2[se]n1-c1ccccc1 [C00031] |  | 0.69 ± 0.15 |  |  |  |  |
| CN(C)CCCNC(=O)c1ccc(-c2cc(O)c3ncccc3c2)cc1 [C00034] |  | 3 ± 0.5 |  |  |  |  |
| O=C(O)CNC(=O)c1c(O)c2ccccc2n(Cc2ccccc2)c1=O [C00035, reference compound] |  | 17.8 ± 5.6 |  |  |  |  |
| O=C(O)CCNc1cc(N2CCc3ccccc3CC2)nc(-c2ccccn2)n1 [C00036] |  | 4.4 ± 0.5 |  |  |  |  |
| O=C(O)CNC(=O)c1c(O)c2ccccc2n(OCC2CC2)c1=O [C00037, reference compound] |  |  |  |  |  | IC50 (human JMJD5 [2]; IC50 JMJD5, JMJD5 0.15 μM): 37.2 ± 6 µM |
| O=c1c(-n2ccnn2)c[nH]n1-c1cc(N2CCOCC2)ncn1 [C00039, reference compound] |  | 29.5 ± 1.6 |  |  |  |  |
| O=C(O)C(=O)c1ccccc1C(=O)O [Entry 26] | < 1% |  | < 1 | < 1% | < 1% |  |
| O=C(O)C(=O)c1cscc1C(=O)O [Entry 34] | < 1% |  | < 1 | < 1% | < 1% |  |
| O=C(O)CCNc1cc(N2CCc3ccccc3CC2)nc(-c2ccccn2)n1 [GSK-J1, reference compound] |  | ~4.4 |  |  |  |  |
| CN(C)CCCNC(=O)c1ccc(-c2cc(O)c3ncccc3c2)cc1 [ML324, reference compound] |  |  |  |  |  | Hill coefficient of the JMJD5 inhibition curve (human JMJD5 [2]): ≥ 2 |
| O=C(O)C(=O)N[C@H](Cc1ccccc1)C(=O)O [NOFD, N-Oxalyl-D-phenylalanine, reference compound] |  |  |  |  |  | IC50 JMJD5 (human JMJD5 [2]; JMJD5 0.15 μM): does not inhibit JMJD5 in the concentration range tested |
| O=C(O)CNC(=O)C(=O)O [NOG, N-oxalylglycine, reference compound] |  | ~0.2 |  |  |  |  |
| CN(C)NC(=O)CCC(=O)O [daminozide, reference compound] |  |  |  |  |  | IC50 (human JMJD5 [2]; IC50 JMJD5, JMJD5 0.15 μM): > 100 µM |
| O=c1c2ccccc2[se]n1-c1ccccc1 [ebselen, reference compound] |  | ~0.7 |  |  |  | Hill coefficient of the JMJD5 inhibition curve (human JMJD5 [2]): ≥ 2 |
| Cc1nc(C(=O)NCC(=O)O)c(O)c2ccc(Oc3ccccc3)cc12 [roxadustat, reference compound] |  |  |  |  |  | IC50 JMJD5 (human JMJD5 [2]; JMJD5 0.15 μM): does not inhibit JMJD5 at substantial levels |
